Some test systems named below: HL-60; K562; NCI-H460; ACHN; IGROV-1; HCT-15; SF-268; A498; COLO 205; SF-295; DU-145; SW-620; PC-3; RPMI-8226; HT-29; KM12; SK-MEL-5; MDA-MB-435; HOP-62; OVCAR-3.
Common to all, as to test: inhibition of tumour cell growth, NCI panel, 48 h

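The compound was tested at five concentrations on cells cultured in 96-well plates, with a 48-hour exposure period. GI50: concentration for 50% inhibition of growth.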 Active and inactive are the calls of the source. Rule as the data show it: active = GI50 up to about 1.1 µM and inactive = higher. Where a SMILES comes first, the peptide text is derived from it. Bridges are numbered along the chain shown (N, C = ends). [ ]: non-standard residue; d: D form. The star is where a group is joined. ξ: configuration not given here. PhAc = O=C(Cc1ccccc1)*; ξP = O=C(O)C1CCCN1

As for `COc1ccc(/C=C/C(=O)c2ccc(Br)cc2)cc1`, the GI50 with HL-60 is 66.8 µM (inactive); in the experiment on K562 it was > 100 µM (inactive); in the experiment on NCI-H460, > 100 µM (inactive); with ACHN it was > 100 µM (inactive); in the experiment with IGROV-1 it was > 100 µM (inactive); in the experiment on HCT-15 it was over 100 µM. In addition, the GI50 with SF-268, in the experiment with A498, in the experiment on COLO 205, in the experiment with SF-295, with DU-145 and with SW-620 was > 100 µM (inactive) throughout. The GI50 was > 100 µM (inactive) with PC-3; 57 µM (inactive) in the experiment on RPMI-8226; > 100 µM (inactive) with HT-29; > 100 µM (inactive) in the experiment with KM12; > 100 µM (inactive) in the experiment with SK-MEL-5; > 100 µM (inactive) in the experiment with MDA-MB-435. For the same molecule, the GI50 in the experiment on HOP-62 is > 100 µM (inactive).

As for `CC1(O)CC23CC(O)C4(O)C(CC(O)C4(C)C)C(C)(O)C2CCC1C3O` (centres undefined), the GI50 with HL-60 was > 100 µM (inactive); in the experiment on K562, > 100 µM (inactive); in the experiment with NCI-H460, > 100 µM (inactive); with ACHN, > 100 µM (inactive); in the experiment on IGROV-1, > 100 µM (inactive); in the experiment on HCT-15, over 100 µM. Further, the GI50 with SF-268, with A498, in the experiment on COLO 205, in the experiment with SF-295, in the experiment with DU-145 and in the experiment with SW-620 was > 100 µM (inactive) each time. The GI50 in the experiment on PC-3, in the experiment on HT-29, in the experiment with KM12, with SK-MEL-5 and with MDA-MB-435 was > 100 µM (inactive) in each case.

Consider `Cc1ccc2c(sc(-c3ccc4c(c3)sc(-c3ccc(N(C)C)cc3)[n+]4C)[n+]2C)c1S(=O)(=O)O.Cc1ccc2c(sc(-c3ccc4c(c3)sc(-c3ccc5c(c3)sc(-c3ccc(N(C)C)cc3)[n+]5C)[n+]4C)[n+]2C)c1S(=O)(=O)O`, for which the GI50 is 52.8 µM (inactive) with HL-60; 35.5 µM (inactive) with K562; 10 µM (inactive) with NCI-H460; 62.7 µM (inactive) in the experiment with ACHN; 9.79 µM (inactive) in the experiment on IGROV-1; 66.1 µM with HCT-15. Further, the GI50 in the experiment on SF-268, in the experiment on OVCAR-3, in the experiment with A498, with COLO 205, in the experiment on SF-295 and in the experiment with DU-145 was > 100 µM (inactive) each time. Also, the GI50 with SW-620 is > 100 µM (inactive); in the experiment on PC-3, > 100 µM (inactive); in the experiment on RPMI-8226, 80.2 µM (inactive); with HT-29, > 100 µM (inactive); in the experiment on KM12, 73.1 µM (inactive); in the experiment on SK-MEL-5, > 100 µM (inactive). Moreover, the GI50 in the experiment with MDA-MB-435 was > 100 µM (inactive).

As for `CCOC(=O)c1csc(NC(=O)CN2CCN(C)CC2)n1`, the GI50 is > 100 µM (inactive) in the experiment on HL-60; > 100 µM (inactive) in the experiment with K562; > 100 µM (inactive) in the experiment on NCI-H460; > 100 µM (inactive) in the experiment on ACHN; > 100 µM (inactive) with IGROV-1; over 100 µM in the experiment with HCT-15. Moreover, the GI50 with OVCAR-3, in the experiment with A498, in the experiment on COLO 205, with SF-295, in the experiment with DU-145 and in the experiment on SW-620 was > 100 µM (inactive) throughout. Further, the GI50 in the experiment on PC-3, in the experiment with RPMI-8226, in the experiment with HT-29, in the experiment with KM12, with SK-MEL-5 and in the experiment with MDA-MB-435 was > 100 µM (inactive) each time. Besides, in the experiment on HOP-62, the GI50 was > 100 µM (inactive).

`O=C(Cc1ccccc1)N[C@@H]1COC(=O)C2CCCN2C(=O)[C@@H]2CCCN2C1=O` (some centres undefined) (PhAc-[dS]-Pro-[ξP]; ester 1-C): the GI50 in the experiment on HL-60 is > 100 µM (inactive); with NCI-H460, > 100 µM (inactive); in the experiment on ACHN it was > 100 µM (inactive); in the experiment on IGROV-1, > 100 µM (inactive); with HCT-15 it was over 100 µM; with SF-268, > 100 µM (inactive). The GI50 in the experiment on OVCAR-3, with A498, in the experiment with COLO 205, with SF-295, in the experiment on DU-145 and with SW-620 was > 100 µM (inactive) throughout. The GI50 in the experiment with PC-3, in the experiment with HT-29, with KM12, in the experiment with SK-MEL-5, in the experiment with MDA-MB-435 and in the experiment on HOP-62 was > 100 µM (inactive) in each case.

On to `CCCCOCn1c(=O)[nH]c(=O)c2cc(Br)ccc21`, for which the GI50 was 42.5 µM (inactive) in the experiment on HL-60; 51.8 µM (inactive) with K562; 14.3 µM (inactive) in the experiment with ACHN; 40.6 µM (inactive) in the experiment with IGROV-1; 44.2 µM in the experiment on HCT-15; 45.9 µM (inactive) in the experiment with OVCAR-3. For the same molecule, the GI50 is 54.6 µM (inactive) with A498; 72.1 µM (inactive) in the experiment on COLO 205; 54.6 µM (inactive) in the experiment with SF-295; > 100 µM (inactive) in the experiment on DU-145; > 100 µM (inactive) in the experiment with SW-620; 35.2 µM (inactive) in the experiment with PC-3. In addition, the GI50 with HT-29 is 23.4 µM (inactive); in the experiment with KM12, 36.5 µM (inactive); in the experiment with SK-MEL-5, 33.1 µM (inactive); with MDA-MB-435 it was 68.2 µM (inactive).

In the case of `C(=N\c1cc2cc(Sc3ccccc3)ccc2[nH]1)/c1ccccc1`, the GI50 in the experiment with HL-60 was > 12.5 µM (inactive); with K562, 11 µM (inactive); in the experiment with ACHN, > 12.5 µM (inactive); in the experiment on HCT-15, over 12.5 µM; with SF-268, > 12.5 µM (inactive); with OVCAR-3, > 12.5 µM (inactive). Further, the GI50 in the experiment on A498 was 1.83 µM (inactive); in the experiment on SF-295, 11 µM (inactive); in the experiment with DU-145 it was > 12.5 µM (inactive); with SW-620 it was > 12.5 µM (inactive); in the experiment on PC-3, > 12.5 µM (inactive); with RPMI-8226, > 12.5 µM (inactive). The GI50 was > 12.5 µM (inactive) with HT-29; 0.0931 µM (active) in the experiment with KM12; 10.6 µM (inactive) in the experiment on SK-MEL-5; 4.28 µM (inactive) with MDA-MB-435; 2.08 µM (inactive) with HOP-62.

Regarding `C=CCOc1ccc(C(/N=N\c2ccc(Cl)cc2)=N/NC(=O)c2ccccc2)cc1OC`, the GI50 was 33.8 µM (inactive) in the experiment with HL-60; 36.1 µM (inactive) in the experiment on NCI-H460; 89.1 µM (inactive) with ACHN; 43.8 µM (inactive) in the experiment on IGROV-1; 80.7 µM in the experiment on HCT-15; > 100 µM (inactive) in the experiment on SF-268. Moreover, the GI50 with OVCAR-3 is 62.7 µM (inactive); in the experiment on A498 it was > 100 µM (inactive); in the experiment with COLO 205 it was 85.3 µM (inactive); in the experiment on SF-295, > 100 µM (inactive); in the experiment on DU-145 it was > 100 µM (inactive); in the experiment on SW-620, > 100 µM (inactive). In addition, the GI50 was 49.5 µM (inactive) with PC-3; 52.7 µM (inactive) in the experiment on HT-29; 38.5 µM (inactive) in the experiment on KM12; 29.9 µM (inactive) in the experiment with SK-MEL-5; 34.7 µM (inactive) in the experiment on MDA-MB-435; > 100 µM (inactive) in the experiment with HOP-62.

Consider `CC(NC(=O)OC(C)(C)C)C(=O)C(N)=O` (centres undefined), for which the GI50 with HL-60 was > 100 µM (inactive); in the experiment on K562, > 100 µM (inactive); with NCI-H460, > 100 µM (inactive); with ACHN it was > 100 µM (inactive); in the experiment with HCT-15 it was over 100 µM; in the experiment on SF-268, > 100 µM (inactive). Also, the GI50 in the experiment on A498, in the experiment with COLO 205, with DU-145, in the experiment with SW-620, with PC-3 and with RPMI-8226 was > 100 µM (inactive) throughout. Moreover, the GI50 in the experiment on SK-MEL-5, in the experiment on MDA-MB-435 and in the experiment on HOP-62 was > 100 µM (inactive) in each case.

As for `N#Cc1c(-c2ccc(Cl)cc2)cc(-c2ccc(Nc3ccnc4cc(Cl)ccc34)cc2)nc1N`, the GI50 is > 100 µM (inactive) with HL-60; > 100 µM (inactive) in the experiment on K562; > 100 µM (inactive) in the experiment with NCI-H460; > 100 µM (inactive) with ACHN; > 100 µM (inactive) in the experiment with IGROV-1; over 100 µM in the experiment with HCT-15. Further, the GI50 with SF-268, in the experiment on OVCAR-3, in the experiment with A498, in the experiment on COLO 205, with SF-295 and in the experiment on DU-145 was > 100 µM (inactive) in each case. Moreover, the GI50 with SW-620, in the experiment with PC-3, in the experiment with RPMI-8226, in the experiment on KM12, in the experiment with MDA-MB-435 and in the experiment on HOP-62 was > 100 µM (inactive) each time.

`Cc1ccc(/N=N/c2c(C)nn(C(=O)CC(=O)Nc3ccc(Cl)cc3)c2C)cc1C`: the GI50 with HL-60 is 24.4 µM (inactive); with NCI-H460, > 100 µM (inactive); with ACHN it was 5.79 µM (inactive); in the experiment on IGROV-1, 37.2 µM (inactive); in the experiment with SF-268 it was 37.2 µM (inactive); with OVCAR-3, > 100 µM (inactive). Besides, the GI50 is 70.1 µM (inactive) in the experiment with A498; 90.4 µM (inactive) with COLO 205; 48.3 µM (inactive) with SF-295; > 100 µM (inactive) in the experiment with DU-145; > 100 µM (inactive) in the experiment on SW-620; > 100 µM (inactive) in the experiment with PC-3. In addition, the GI50 is > 100 µM (inactive) in the experiment on RPMI-8226; > 100 µM (inactive) in the experiment with HT-29; > 100 µM (inactive) in the experiment on KM12; > 100 µM (inactive) in the experiment on SK-MEL-5; > 100 µM (inactive) in the experiment on MDA-MB-435; 34 µM (inactive) in the experiment with HOP-62.

The values above are taken from ChEMBL document CHEMBL1201862, “PubChem BioAssay data set” (2004).
